What is called melting point is the temperature of the solid-liquid transition.

The values that follow come from patent US7601738B2, “Excitatory amino acid receptor antagonists” (Eli Lilly and Company, priority 2001, dated 2009).

Each structure is given as a SMILES string. A value given as a limit tells only on which side of the number the result lay.

On to `Cl.O=C(O)c1cc2ccccc2cc1S[C@H]1CC[C@H]2CN[C@H](C(=O)O)C[C@H]2C1`, for which the melting point was > 183 °C (dec.).

Take `Cc1ccc(C(=O)O)c(S[C@H]2CC[C@H]3CN[C@H](C(=O)O)C[C@H]3C2)c1.Cl`: the melting point is > 177 °C (dec.).
